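Protocol summary: plate cells (96-well), add compound at 5 concentrations, incubate 48 h, interpolate endpoints linearly. TGI marks complete inhibition of growth.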

Among the test systems are K-562 leukemia; KM12 colon; BT-549 breast; ACHN renal; MDA-N; A549 NSCLC; NCI-H522 lung; SNB-19 CNS; HCC-2998 colon.
Common to all, as to experiment: growth of human tumour cells (NCI), 48 h

Turning to `COc1ccc(C(=O)c2ccc(-n3cc(/C=C/[N+](=O)[O-])c4ccccc43)cc2)cc1`, the TGI with K-562 leukemia is greater than 100 µM; in the test on KM12 colon, 55.2 µM; in the test with BT-549 breast it was 33.7 µM; in the test with ACHN renal it was 52 µM; in the test with MDA-N, greater than 58.9 µM; with A549 NSCLC, greater than 100 µM. Moreover, the TGI in the test with NCI-H522 lung is 33.8 µM; with SNB-19 CNS, greater than 72.4 µM; with HCC-2998 colon, 48.9 µM.
Regarding `Cc1ccc(S(=O)(=O)N/N=C2\C3CC4CC(C3)C2C4)cc1` (centres undefined), the TGI with K-562 leukemia, with KM12 colon, with BT-549 breast, in the test on MDA-N, in the test on A549 NSCLC and with NCI-H522 lung was greater than 100 µM each time. Besides, the TGI with SNB-19 CNS and in the test on HCC-2998 colon was greater than 100 µM in each case.
As to `Cc1ccc(/C=C2\CN(C)CC3C2=NC(=S)NC3c2ccc(C)cc2)cc1` (centres undefined), the TGI in the test with K-562 leukemia is greater than 100 µM; with KM12 colon, greater than 100 µM; in the test with BT-549 breast, greater than 100 µM; with ACHN renal it was greater than 100 µM; in the test with MDA-N, 80.5 µM; in the test with A549 NSCLC, greater than 100 µM. The TGI in the test with NCI-H522 lung is greater than 100 µM; in the test with SNB-19 CNS, greater than 100 µM; with HCC-2998 colon it was 33.4 µM.
Take `Cc1cc(S(=O)(=O)O)c(NC(=O)c2oc3cc(O)ccc3c(=O)c2C)cc1Cl`: the TGI in the test with K-562 leukemia, with KM12 colon, in the test with BT-549 breast, with ACHN renal, in the test with MDA-N and with A549 NSCLC was greater than 100 µM each time. The TGI with NCI-H522 lung, in the test with SNB-19 CNS and with HCC-2998 colon was greater than 100 µM throughout.
Take `CCN(CC)CCN(C)CCc1ccc(Br)cc1`: the TGI with K-562 leukemia, with KM12 colon, with BT-549 breast, in the test on ACHN renal, in the test with MDA-N and in the test with A549 NSCLC was greater than 100 µM each time. Further, the TGI with NCI-H522 lung, in the test on SNB-19 CNS and with HCC-2998 colon was greater than 100 µM each time.
Consider `C=CCOC(=O)CCCCCCCCCCCCCCCOC(=O)C1=C(CCC[C@@H](C)O[Si](C)(C)C(C)(C)C)NC(=O)N2[C@H](CC3(CC/C=C\[C@H](CC)O[Si](C(C)C)(C(C)C)C(C)C)OCCO3)CC[C@H]12`, for which the TGI with KM12 colon, with BT-549 breast, with ACHN renal, with MDA-N, with A549 NSCLC and in the test with NCI-H522 lung was greater than 100 µM throughout. For the same compound, the TGI in the test with SNB-19 CNS and in the test with HCC-2998 colon was greater than 100 µM in each case.
As to `CC1=C2NCN(C)N=C2C(C#N)(C#N)C1(C#N)C#N`, the TGI in the test on K-562 leukemia is greater than 100 µM; with KM12 colon, greater than 100 µM; in the test with BT-549 breast it was 44.5 µM; in the test on ACHN renal, 33 µM; in the test with MDA-N, 30 µM; with A549 NSCLC, greater than 100 µM. Moreover, the TGI was 28.5 µM with NCI-H522 lung, greater than 95.2 µM in the test with SNB-19 CNS and 44.4 µM in the test with HCC-2998 colon.
Consider `O=P(O)(O)CN1CCNCCN(CP(=O)(O)O)CCNCC1`, for which the TGI with K-562 leukemia, with KM12 colon, in the test with BT-549 breast, in the test on ACHN renal, in the test with MDA-N and in the test with A549 NSCLC was greater than 100 µM in each case. For the same compound, the TGI in the test on NCI-H522 lung, in the test with SNB-19 CNS and with HCC-2998 colon was greater than 100 µM in each case.
`COC(=O)c1ccc(/C=C2\CCc3ccccc3C2=O)cc1`: the TGI in the test on K-562 leukemia, in the test with KM12 colon, in the test with BT-549 breast, in the test with ACHN renal, in the test on MDA-N and in the test with A549 NSCLC was greater than 100 µM each time. Moreover, the TGI with NCI-H522 lung, in the test with SNB-19 CNS and with HCC-2998 colon was greater than 100 µM each time.
As to `O=C1CSc2nnc(CCCCCCCCc3nnc4n3NC(=O)CS4)n2N1`, the TGI in the test with K-562 leukemia, in the test on KM12 colon, in the test with BT-549 breast, in the test with ACHN renal, with MDA-N and in the test on A549 NSCLC was greater than 100 µM each time. The results for the TGI in the test on NCI-H522 lung, in the test on SNB-19 CNS and in the test on HCC-2998 colon were 75.2 µM, greater than 100 µM and greater than 100 µM, respectively.
Consider `CCCNC(=O)CCC(C)[C@H]1CCC2C3C(C[C@H](OC(C)=O)[C@@]21C)[C@@]1(C)CCC2(C[C@H]1C[C@H]3OC(C)=O)OOC1(CCCCC1)OO2` (some centres undefined), for which the TGI in the test with K-562 leukemia was greater than 60.8 µM; in the test on KM12 colon, 3.56 µM; in the test on BT-549 breast, 12.4 µM; in the test on ACHN renal it was 2.62 µM; in the test on MDA-N it was 16.6 µM; with A549 NSCLC, 2.82 µM. Besides, the TGI with NCI-H522 lung is 1.44 µM; in the test with SNB-19 CNS, greater than 100 µM; in the test on HCC-2998 colon it was greater than 43.3 µM.
In the case of `CCOC(=O)C1CCCCc2sc(N)c(C#N)c21` (centres undefined), the TGI in the test on K-562 leukemia, with KM12 colon, in the test with BT-549 breast, with ACHN renal, in the test on MDA-N and in the test on A549 NSCLC was greater than 100 µM throughout. The TGI in the test with SNB-19 CNS and in the test on HCC-2998 colon was greater than 100 µM each time.
Take `Cc1ccc2c(c1)CC1(C2=O)[C@H](c2ccccc2)C2C(=O)c3ccc(C)cc3C2[C@H]1c1ccccc1` (some centres undefined): the TGI with K-562 leukemia, with KM12 colon, with BT-549 breast, in the test on ACHN renal, in the test on MDA-N and in the test on A549 NSCLC was greater than 100 µM each time. Moreover, the TGI in the test with NCI-H522 lung, in the test with SNB-19 CNS and in the test with HCC-2998 colon was greater than 100 µM throughout.
As to `COC(=O)c1c(OC)cc2cc3c(c(O)c2c1C)C(=O)C1(O)C(=O)C=C(OC)C(OC(=O)CC(C)N)=C1C3=O` (centres undefined), the TGI with KM12 colon is 42.7 µM; in the test on BT-549 breast, greater than 100 µM; with ACHN renal, greater than 100 µM; in the test with MDA-N it was greater than 100 µM; with A549 NSCLC, greater than 100 µM; in the test on NCI-H522 lung, greater than 100 µM. Besides, the values for the TGI in the test with SNB-19 CNS and with HCC-2998 colon were greater than 100 µM and 87.9 µM, respectively.
In the case of `O=C(c1ccco1)C1CC(c2ccc3ccccc3c2O)=NN1c1ccc([N+](=O)[O-])cc1[N+](=O)[O-]` (centres undefined), the TGI in the test on KM12 colon is 26.2 µM; in the test on BT-549 breast, greater than 100 µM; in the test on ACHN renal, greater than 100 µM; in the test with MDA-N it was greater than 100 µM; with A549 NSCLC it was greater than 100 µM; in the test with NCI-H522 lung, 47.5 µM. In the test with HCC-2998 colon, this compound showed a TGI greater than 100 µM.

Values taken from PubChem BioAssay (NCI).
